For this series, the target named is PA-IL (lectin A, Lec A) (Pseudomonas aeruginosa, UniProt Q05097). As to the kind of experiment: Lectin histochemistry: D-galactose blocking of biotinylated PA-IL binding to human respiratory epithelia, in relation to storage time of the sugar solution. The following applies: for PA-IL lectin binding at the cilia of human respiratory epithelia in presence of D-galactose: 5 μg/ml PA-IL. As for the experimental part: Tissue preparation and lectin histological staining has been described (Schreiber et al. (2014) Anticancer Res. 34 (12): 7045-53). Five μm thick sections of human airway epithelium were applied to Adhesion Micro Slides (Histo Bond®; Marienfeld GmbH, Lauda-Königshofen Germany). Slides were deparaffinized and rehydrated through a series of graded ethanol to distilled water. […] Deparaffinized sections were briefly incubated in lectin buffer (LB) consisting of tris-buffered saline (TBS contained Trizma Base, 50 mM Tris; Sigma, Steinheim, Germany), sodium chloride (150 mM; J. T. Baker, Deventer, the Netherlands) and hydrochloric acid (Merck, Darmstadt, Germany) in distilled water (adjusted to pH 7.6) with addition of 1% MgCl2 and 1% CaCl2) (Merck, Darmstadt Germany). Sections were then treated with 0.1% trypsin (Biochrom KG, Berlin, Germany) dissolved in LB and incubated for 10 min at 37° C. To stop the digestion of the sections with trypsin, the sections were washed in running tap water for 5 min. […] This step was followed by three washes (5 min each) in TBS. Afterwards the sections were incubated with alkaline phosphatase streptavidin complex (Vectastain® ABC-Kit; Vector Laboratories) in a humid chamber for 30 min. After final three rinsings (5 min each) in TBS, sections were transferred into the visualizing mixture containing naphthol-AS-biphosphate, hexatozised new fuchsin, dimethylformamide and tween 20 (all from Sigma-Aldrich Chemie, Darmstadt, Germany) applied in the dark for 20 min to visualize enzyme reactivity. To stop the enzyme reaction, the sections were washed in running tap water (7 min) and were then transferred into distilled water (2 min). Counterstaining was performed using Mayer's hemalum (Merck). The sections were dehydrated and subsequently covered using a resinous permanent mounting medium (Eukitt, Kindler GmbH, Freiburg, Germany). Slides were first evaluated using a ZEISS Axiophot 2 microscope (Carl Zeiss, Jena, Germany). Digital images were obtained with a ZEISS Axio Scan Z1 slide scanner equipped with a ZEISS EC Plan-Neofluar 20×/0.50 Pol M27 objective (Carl Zeiss, Jena, Germany) and a Hitachi HV-F20SCL camera with 1600×1200 pixels (Hitachi Kokusai Electric America Ltd., New York, USA). For image acquisition ZEISS ZEN 2.3 software was used (Carl Zeiss, Jena, Germany). Images were further processed with netScope Viewer software (Net-Base Software, Freiburg, Germany).
For the PA-IL blocking experiments, 10 μg/ml PA-IL solution dissolved in LB was incubated 1:1 with a freshly prepared D-galactose solution (Merck, Darmstadt) for 30 min resulting in a final 5 μg/ml PA-IL solution before applying the mixture to the sections. The final concentration of D-galactose in solution ranged from 0.3 mM to 0.0375 mM D-galactose.
To analyze the loss of D-galactose activity to block PA-IL tissue binding in relation to storage time in an aqueous solution, D-galactose was dissolved in water and then stored for different durations (for 0, 40, 80, 160, 320 minutes as well as 12 and 24 h). After storage D-galactose was mixed with the PA-IL solution and used to incubate human respiratory epithelial tissue samples as described previously.

Chain of PA-IL (lectin A, Lec A) (Q05097 whole entry): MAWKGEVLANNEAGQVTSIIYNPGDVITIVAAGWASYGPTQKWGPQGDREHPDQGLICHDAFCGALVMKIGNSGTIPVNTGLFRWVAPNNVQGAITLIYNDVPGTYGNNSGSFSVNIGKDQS

As to `O=C[C@H](O)[C@@H](O)[C@@H](O)[C@H](O)CO` [D-galactose], the “PA-IL lectin binding at the cilia of human respiratory epithelia in presence of D-galactose” value (0.0375 mM D-galactose stored 80 minutes in water, FIG. 8) was “significantly reduced, but not completely abolished” and the “PA-IL lectin binding at the cilia of human respiratory epithelia in presence of D-galactose” value (freshly dissolved 0.0375 mM D-galactose, time point 0, FIG. 7) is recorded as “abolished”. For the same molecule, where the note is “after 80 minutes storage time in aqueous solution”, the “PA-IL blocking activity of aqueous D-galactose solution” value is given as “nearly abolished”. The “PA-IL blocking efficacy of aqueous D-galactose solution” value (freshly prepared solution) is recorded as “significant blocking activity”. The “period of storage in aqueous solution over which PA-IL blocking efficacy is lost” value (storage in aqueous solution) is on record as “approximately 80 minutes”.

The values above are taken from US20260166065A1 (priority 2023, published 2026).
